# Reference: patent publication US9145373B2, “Certain kynurenine-3-monooxygenase inhibitors, pharmaceutical compositions, and methods of use thereof” (CHDI FOUNDATION, INC., priority 2008, dated 2015)
# Biological target: T1, KMO mouse enzyme (Mus musculus, UniProt Q91WN4)
# T1 construct: KMO enzyme prepared at Evotec from mouse liver (4-6 weeks old) via mitochondria isolation; from tissue; host or cells: mouse liver (4-6 weeks old), mitochondria isolation, prepared at Evotec
# Assay: KMO mouse enzyme assay: L-Kynurenine hydroxylation to 3-Hydroxy-Kynurenine monitored by LC/MS (MRM)
# Format: biochemical
# Conditions: compound at 10 μM; KMO enzyme from mouse liver mitochondria; read-out: INH.Mouse @ 10 μM
# Experimental: A method of monitoring L-Kynurenine (KYN) hydroxylation to form 3-Hydroxy-Kynurenine (3OH-KYN) by LC/MS is described. Product is quantified by multiple reaction monitoring (MRM method).
# • Compound: Stock concentrations: 10 mM in 100% DMSO • Enzyme: KMO enzyme prepared at Evotec from mouse liver (4-6 weeks old) via mitochondria isolation as described in the literature • Substrate: L-Kynurenine (Sigma: Cat# K3750, stock concentration: 10 mM in 100 mM potassium phosphate buffer, pH 7.4) Assay Conditions: […]
# T1 sequence (Q91WN4 whole entry): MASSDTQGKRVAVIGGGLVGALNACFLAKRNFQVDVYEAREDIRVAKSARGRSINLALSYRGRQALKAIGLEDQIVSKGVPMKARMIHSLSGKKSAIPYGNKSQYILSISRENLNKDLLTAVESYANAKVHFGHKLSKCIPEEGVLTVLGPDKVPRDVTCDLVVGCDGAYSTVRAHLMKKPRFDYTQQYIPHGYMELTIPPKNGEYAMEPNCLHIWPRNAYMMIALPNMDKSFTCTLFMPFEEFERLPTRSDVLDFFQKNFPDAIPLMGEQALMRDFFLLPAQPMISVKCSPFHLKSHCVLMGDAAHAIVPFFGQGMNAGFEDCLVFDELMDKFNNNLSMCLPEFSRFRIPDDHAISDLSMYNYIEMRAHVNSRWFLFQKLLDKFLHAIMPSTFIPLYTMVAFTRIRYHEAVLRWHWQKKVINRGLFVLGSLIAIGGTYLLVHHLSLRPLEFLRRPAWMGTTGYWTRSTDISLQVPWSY
row,Structure (SMILES),inhibition at 10 µM [%]
1,"O=C(c1cc(-c2ccc(Cl)c(Cl)c2)ccn1)N1CCc2ccccc21 [[4-(3,4-Dichloro-phenyl)-pyridin-2-yl]-(2,3-dihydro-indol-1-yl)-methanone]",96.6
2,"O=C(Nc1nncs1)c1cc(-c2ccc(Cl)c(Cl)c2)ncn1 [6-(3,4-Dichloro-phenyl)-pyrimidine-4-carboxylic acid [1,3,4]thiadiazol-2-ylamide]",100
3,"Cc1ccc(NC(=O)c2cc(-c3ccc(Cl)c(Cl)c3)ncn2)c(C)n1 [6-(3,4-Dichloro-phenyl)-pyrimidine-4-carboxylic acid (2,6-dimethyl-pyridin-3-yl)-amide]",96.8
4,Cc1ccc(N(C)C(=O)c2cc(-c3cccc(Cl)c3)ncn2)cc1 [6-(3-Chloro-phenyl)-pyrimidine-4-carboxylic acid methyl-p-tolyl-amide],100
5,"O=C(Nc1ccccn1)c1cc(-c2ccc(Cl)c(Cl)c2)ncn1 [6-(3,4-Dichloro-phenyl)-pyrimidine-4-carboxylic acid pyridin-2-ylamide]",100
6,O=C(Nc1ccccc1)c1cc(-c2cccc(Cl)c2)ncn1 [6-(3-Chloro-phenyl)-pyrimidine-4-carboxylic acid phenylamide],100
7,C[C@@H](NC(=O)c1cc(-c2cccc(Cl)c2)ncn1)c1ccccc1 [6-(3-Chloro-phenyl)-pyrimidine-4-carboxylic acid ((R)-1-phenyl-ethyl)-amide],99.2
8,O=C(NCc1ccccc1)c1cc(-c2cccc(Cl)c2)ncn1 [6-(3-Chloro-phenyl)-pyrimidine-4-carboxylic acid benzylamide],67
9,COc1cccc(NC(=O)c2cc(-c3cccc(Cl)c3)ncn2)c1 [6-(3-Chloro-phenyl)-pyrimidine-4-carboxylic acid (3-methoxy-phenyl)-amide],97.1
10,Cc1ccccc1NC(=O)c1cc(-c2cccc(Cl)c2)ncn1 [6-(3-Chloro-phenyl)-pyrimidine-4-carboxylic acid o-tolylamide],96.2
11,COc1cccc(-c2cc(C(=O)O)ncn2)c1 [6-(3-Methoxy-phenyl)-pyrimidine-4-carboxylic acid],81
12,"O=C(Nc1ccon1)c1cc(-c2ccc(Cl)c(Cl)c2)ncn1 [6-(3,4-Dichloro-phenyl)-pyrimidine-4-carboxylic acid isoxazol-3-ylamide]",100
13,O=C(Nc1cncnc1)c1cc(-c2cccc(Cl)c2)ncn1 [6-(3-Chloro-phenyl)-pyrimidine-4-carboxylic acid pyrimidin-5-ylamide],100
14,O=C(Nc1cccnc1)c1cc(-c2cccc(F)c2)ncn1 [6-(3-Fluoro-phenyl)-pyrimidine-4-carboxylic acid pyridin-3-ylamide],94.8
15,"COC(=O)c1cc(-c2ccc(F)c(F)c2)ncn1 [6-(3,4-Difluoro-phenyl)-pyrimidine-4-carboxylic acid methyl ester]",100
16,Cc1ccc(NC(=O)c2cc(-c3cccc(Cl)c3)ccn2)cc1 [4-(3-Chloro-phenyl)-pyridine-2-carboxylic acid p-tolylamide],85.6
17,"O=C(Nc1cncnc1)c1cc(-c2ccc(Cl)c(Cl)c2)ncn1 [6-(3,4-Dichloro-phenyl)-pyrimidine-4-carboxylic acid pyrimidin-5-ylamide]",95.5
18,"O=C(c1cc(-c2cc(Cl)cc(Cl)c2)ncn1)N1CCc2ccccc21 [[6-(3,5-Dichloro-phenyl)-pyrimidin-4-yl]-(2,3-dihydro-indol-1-yl)-methanone]",98.3
19,"COC(=O)c1cc(-c2cc(Cl)cc(Cl)c2)ncn1 [6-(3,5-Dichloro-phenyl)-pyrimidine-4-carboxylic acid methyl ester]",101
20,COC(=O)c1cc(-c2cccc(C(F)(F)F)c2)ncn1 [6-(3-Trifluoromethyl-phenyl)-pyrimidine-4-carboxylic acid methyl ester],94.5
21,"Cc1ccc(NC(=O)c2cc(-c3ccc(Cl)c(Cl)c3)ncn2)cc1 [6-(3,4-Dichloro-phenyl)-pyrimidine-4-carboxylic acid p-tolylamide]",100
22,O=C(Nc1ccccc1)c1cc(-c2cccc(Cl)c2)ccn1 [4-(3-Chloro-phenyl)-pyridine-2-carboxylic acid phenylamide],68.4

# The next lines start with the values.
row,inhibition at 10 µM [%],Structure (SMILES)
1,100,"Cc1nnc(NC(=O)c2cc(-c3cccc(Cl)c3)ncn2)o1 [6-(3-Chloro-phenyl)-pyrimidine-4-carboxylic acid (5-methyl-[1,3,4]oxadiazol-2-yl)-amide]"
2,94.9,CC(=O)N1CCN(C(=O)c2cc(-c3cccc(Cl)c3)ncn2)CC1 [1-{4-[6-(3-Chloro-phenyl)-pyrimidine-4-carbonyl]-piperazin-1-yl}-ethanone]
3,84.9,O=C(c1cc(-c2cccc(Cl)c2)ncn1)N1CC[C@H](O)C1 [[6-(3-Chloro-phenyl)-pyrimidin-4-yl]-((S)-3-hydroxy-pyrrolidin-1-yl)-methanone]
4,85.4,"Cc1nsc(NC(=O)c2cc(-c3cccc(Cl)c3)ncn2)n1 [6-(3-Chloro-phenyl)-pyrimidine-4-carboxylic acid (3-methyl-[1,2,4]thiadiazol-5-yl)-amide]"
5,100,O=C(Nc1cnccn1)c1cc(-c2cccc(Cl)c2)ncn1 [6-(3-Chloro-phenyl)-pyrimidine-4-carboxylic acid pyrazin-2-ylamide]
6,100,"O=C(c1cc(-c2cccc(Cl)c2)ncn1)N1Cc2ccccc2C1 [[6-(3-Chloro-phenyl)-pyrimidin-4-yl]-(1,3-dihydro-isoindol-2-yl)-methanone]"
7,100,"O=C(c1cc(-c2cccc(Cl)c2)ncn1)N1CCCc2ccccc21 [[6-(3-Chloro-phenyl)-pyrimidin-4-yl]-(3,4-dihydro-2H-quinolin-1-yl)-methanone]"
8,100,O=C1CN(C(=O)c2cc(-c3cccc(Cl)c3)ncn2)CCN1 [4-[6-(3-Chloro-phenyl)-pyrimidine-4-carbonyl]-piperazin-2-one]
9,63.5,"O=C(c1cc(-c2ccc(Cl)c(Cl)c2)ncn1)N1Cc2ccccc2C1 [[6-(3,4-Dichloro-phenyl)-pyrimidin-4-yl]-(1,3-dihydro-isoindol-2-yl)-methanone]"
10,100,"O=C(c1cc(-c2cccc(Cl)c2)ncn1)N1CCc2ccccc21 [[6-(3-Chloro-phenyl)-pyrimidin-4-yl]-(2,3-dihydro-indol-1-yl)-methanone]"
11,98.9,O=C(Nc1ccc(F)cc1)c1cc(-c2cccc(Cl)c2)ncn1 [6-(3-Chloro-phenyl)-pyrimidine-4-carboxylic acid (4-fluoro-phenyl)-amide]
12,100,O=C(c1cc(-c2cccc(Cl)c2)ncn1)N1CCC(O)CC1 [[6-(3-Chloro-phenyl)-pyrimidin-4-yl]-(4-hydroxy-piperidin-1-yl)-methanone]
13,83.9,O=C(c1cc(-c2cccc(Cl)c2)ncn1)N1CC[C@@H](O)C1 [[6-(3-Chloro-phenyl)-pyrimidin-4-yl]-((R)-3-hydroxy-pyrrolidin-1-yl)-methanone]
14,95.4,NC(=O)[C@H]1CCCN1C(=O)c1cc(-c2cccc(Cl)c2)ncn1 [(R)-1-[6-(3-Chloro-phenyl)-pyrimidine-4-carbonyl]-pyrrolidine-2-carboxylic acid amide]
